Consider three molecules from article PMC9262865 (Chembiochem, 2022).

For experiment [1], the target named is T1, tyrosine phenol-lyase (M379A TPL) (Citrobacter freundii, UniProt P31013, M379A). In words: LDH-coupled steady-state kinetics of purified enzyme. It is filed as biochemical.
Experiment [2] addresses T1, tyrosine phenol-lyase (M379A TPL). In words: X-ray crystal structure. It counts as binding.
For experiment [3], the target named is tyrosine phenol-lyase (wild type TPL) (Citrobacter freundii, UniProt P31013). As to the kind of experiment: absorbance titration at […] nm. It counts as binding.

pKd: −log10 of the molar value.

On to `N[C@@H](Cc1ccc(O)cc1)C(=O)O` [compound 1, L-tyrosine], for which the “M379A TPL / k cat/K M, M^-1 s^-1” value in experiment [1] is 148 M^-1 s^-1 (kcat/KM).

On to `CSCC[C@H](N)C(=O)O` [L-methionine], for which the negative-log Kd (pKd) in experiment [2] is 2.76; in experiment [3] it was 3.10.

Turning to `N[C@@H](Cc1ccc(O)c(F)c1)C(=O)O` [compound 3, 3-F-L-tyrosine], the “M379A TPL / k cat/K M, M^-1 s^-1” value in experiment [1] is reported as 774 M^-1 s^-1 (kcat/KM).

What is called pKd is the Kd on a negative log10 scale, so that one unit is a factor of ten. Lower therefore signals a high Kd.
